Tests used:
[1] = molecular target: wild type MLL1 four-member complex (MLL1-4C) (Homo sapiens, UniProt Q03164); test: MLL1 LC-MS assay; format: biochemical; settings: 30 nM MLL1-4C, 2.5 μM SAM, 10 μM H3K4me0; SAH production by LC-MS/MS; read-out: MLL1 LCMS
Experimental: The compounds of the present disclosure were serially and separately diluted 3-fold in DMSO to obtain a total of eight or twelve concentrations. Then the test compounds at each concentration (120 nL of each) were transferred by Mosquito into white Proxiplate plus 384-well microplate (PerkinElmer). Solutions (6 μL) of 60 nM wild type MLL1 four-member complex (MLL1-4C) and 5 μM SAM in the reaction buffer (20 mM Tris-HCl, pH8.0, 0.01% Tween 20, 1 mM DTT, 10 mM MgCl2, 0.01% BSA) were added to the wells that were then incubated with the test compound for 20 min. A 6 μL solution of 20 μM of the peptide substrate H3K4me0 (histone H3[1-21]-Biotin) in the reaction buffer was added to initiate each reaction. The final components in the reaction solution include 30 nM MLL1-4C, 2.5 μM SAM, and 10 μM H3K4me0 with varying concentration of the compounds. A positive control consisted of 30 nM MLL1-4C, 2.5 μM SAM, and 10 μM substrate in the absence of the test compound, and a negative control consisted of 2.5 μM SAM, and 10 μM substrate only. Each reaction was incubated at rt for 120 min, then stopped by addition of 3 μL per of quench solution (2.5% TFA with 320 nM d4-SAH). The reaction mixture was centrifuged (Eppendorf centrifuge 5810, Rotor A-4-62) for 2 min at 2000 rmp. The SAH production from the enzymatic assays were monitored by LC-MS/MS on an API 4000 triple quadrupole mass spec with TurboIon Spray (Applied Biosystem) coupled with Prominenece UFLC(Shimazu). The level of SAH production were then normalized based on the values coming from the positive and negative controls to give percent enzyme activities. The data were then fit to a dose response equation using the program Helios (Novartis) to get the IC50 values of the test compounds.

[2] = molecular target: wild type MLL1 five-member complex (MLL1-5C) (Homo sapiens, UniProt Q03164); test: MLL1 Flashplate assay; format: biochemical; settings: 2.5 nM MLL1-5C, 0.5 μM 3H-SAM, 1 μM H3K4me0; read-out: MLL1 flash plate
Experimental: MLL1 Flashplate Assay To assess the compound potency in MLL1 Flashplate assay, compounds were serially diluted 3-fold in DMSO to obtain a total of twelve concentrations. Then the test compounds at each concentration (250 nL of each) were transferred by Mosquito into Corning #3675 384-well plate. Solutions (15 μL) of 4.2 nM wild type MLL1 five-member complex (MLL1-5C) in the assay buffer (20 mM Tris-HCl, pH8.0, 0.01% Tween 20, 1 mM DTT, 0.01% BSA) were added to the wells. A 10 μL solution of 2.5 μM of the peptide substrate H3K4me0 (histone H3[1-21]-Biotin) and 1.25 μM ^3H-SAM in the reaction buffer was then added to initiate each reaction. The final components in the reaction solution include 2.5 nM MLL1-5C, 0.5 μM ^3H-SAM, and 1 μM H3K4me0 with varying concentration of the compounds. A positive control consisted of 2.5 nM MLL1-5C, 0.5 μM ^3H-SAM, and 1 μM substrate in the absence of the test compound, and a negative control consisted of 0.5 μM ^3H-SAM, and 1 μM substrate only. Each reaction was incubated at rt for 90 min, then stopped by addition of 5 μL per of quench solution (0.5 mM SAM in assay buffer). 25 μL of each reaction solution was transferred to FlashPlate streptavidin 384-well microplate (PerkinElmer). After at least 1 h incubation at rt, the wells were washed three times with 0.1% Tween-20 in dH2O using the BioTek plate washer. The plates were then read in MicroBeta (PerkinElmer). The radioactive readouts were then normalized based on the values coming from the positive and negative controls to give percent enzyme activities. The data were then fit to a dose response equation using the program Helios to get the IC50 values of the test compounds.

H3K4me3 in MV4-11 cells = test: MV4-11 H3K4Me3 cellular ELISA assay; format: cell-based; settings: Homo sapiens, 48 hours, H3K4me3 signal normalized to total H3
Experimental: MV4-11H3K4Me3 Cellular ELISA Assay
MV4-11 (ATCC® CRL-9591™) was cultured with RPMI1640 medium (Thermo Fisher Scientific, cat #11875) supplemented with 10% FBS (Thermo Fisher Scientific, cat #10099141) and 50 U/ml Penicillin-Streptomycin (Thermo Fisher Scientific, cat #10378016) in humidified incubator at 37° C., 5% CO2.
200 nL compounds dissolved in DMSO were serially diluted at 1:3 ratio for 12 points starting from 10 mM and dispensed into each wells of cell culture plates (PDL-coated ViewPlate-384 Black, FTC, PerkinElmer, #6007710). 3,750 MV4-11 cells in 40 μL culture medium were seeded into each well and treated with desired concentration for 48 hours. After treatment, wash cells with cold phosphate based buffer (PBS, pH 7.4) and aspirate the remaining PBS buffer. Crude histone lysate was extracted by 40 μL 0.5M HCl for 1 hour in 4° C. following neutralization by adding 32 μL neutralization buffer (0.5M Sodium phosphate dibasic, pH˜12.5, 1.25 mM Dithiothreitol, Promega #V3151, Protease Inhibitor Cocktail, Sigma #8340) for each well. 5 μL and 20 μL of histone lysate was loaded to ELISA plate (384 Well Plates, PE HB, White, 6005620) for detection of total H3 and H3K4me3, respectively. Shake the plates gently in 4° C. for overnight. After histone binding, plates were washed with 80 μL PBS/T (PBS with 0.05% Tween-20) and blocked with 50 μL 3% BSA diluted in PBS/T per well for 1 hour. Incubate wells with primary antibody for 1 hour at room temperature using anti-H3K4me3 (CST #9727) and anti-total H3 (CST #9715) diluted 1:2000 in 3% BSA. Plates were then washed with PBS/T for 3 times and incubated with horseradish peroxidase (HRP) conjugated secondary antibody (CST #7074, 1:5000) for 1 hour at room temperature. The abundance of H3K4me3 and total H3 were measured by ECL substrates chemiluminesce (Pierce, #34080) on a plate reader (PerkinElmer EnVison 2104 Mutilable Reader). Percentage inhibition was calculated against DMSO control after normalization of H3K4me3 signal to H3 signal for individual samples. The data were then fit to a dose response curve using GraphPad Prism for IC50 calculation.

MV4-11 cells = test: MV4-11 6-day cell growth CTG (CellTiter-Glo) assay; format: cell-based; settings: Homo sapiens, 144 h, 6 days
Experimental: MV4-11 6-Day Cell Growth CTG (CellTiter-Glo) Assay
Acute myeloid leukemia cell MV4-11 (ATCC® CRL-9591™) was cultured with RPMI 1640 medium (Thermo Fisher Scientific, cat #11875) supplemented with 10% FBS (Thermo Fisher Scientific, cat #10099141) in humidified incubator at 37° C., 5% CO2. To assess the effect of MLL1 inhibition on cell growth, the compound of the present invention was dissolved in DMSO and serially diluted at 1:3 for 12 points starting from 10 mM then 200 nL for the replicate of each dose per well was dispensed to Viewplate-384 Black (Perkin Elmer). Exponentially growing MV4-11 cells were seeded at the density of 300 cells per well in 40 μL to the plate, so the final compound working concentration starts from 50 μM. After 6 days, 40 μL CellTiter-Glo (Promega, cat #G7573) was added into the cell culture well and luminescence was read with Envision (Perkin Elmer) to determine the viable cells. The percentage inhibition was calculated against the samples treated with DMSO only and the data were used for dose response curve fitting in GraphPad Prism to get the IC50 of representative compound of present invention, which reflects the inhibition of MLL1 activity.

Row | SMILES | IC50 [1] | IC50 [2] | IC50 (MV4-11 cells) | IC50 (H3K4me3 in MV4-11 cells)
1 | COC[C@H](N)CCCOc1ccc(Cl)c(Cl)c1Cc1cnc2c(N)ncnn12 [Example 5, (R)-7-(6-((4-amino-5-methoxypentyl)oxy)-2,3-dichlorobenzyl)imidazo[2,1-f][1,2,4]triazin-4-amine] | > 100 nM | > 100 nM |  | > 3000 nM
2 | COC[C@H](N)CCCOc1ccc(Cl)c(Cl)c1Cc1cnn2c(N)ncnc12 [Example 8, (R)-8-(6-((4-amino-5-methoxypentyl)oxy)-2,3-dichlorobenzyl)pyrazolo[1,5-a][1,3,5]triazin-4-amine] | > 100 nM | > 100 nM |  | > 3000 nM
3 | CCOC[C@H](N)CCCOc1ccc(Cl)c(Cl)c1Cc1cnn2c(N)ncnc12 [Example 16, (R)-8-(6-((4-amino-5-ethoxypentyl)oxy)-2,3-dichlorobenzyl)pyrazolo[1,5-a][1,3,5]triazin-4-amine] | > 100 nM | > 100 nM |  | > 3000 nM
4 | COC[C@@H](N)CCOc1ccc(Cl)c(Cl)c1Cc1cnn2c(N)ncnc12 [Example 17, (S)-8-(6-(3-amino-4-methoxybutoxy)-2,3-dichlorobenzyl)pyrazolo[1,5-a][1,3,5]triazin-4-amine] | > 100 nM | > 100 nM |  | 
5 | CN[C@H](CCCOc1cc(Cl)cc(Br)c1Cn1cnc2c(N)ncnc21)COC [Example 22, (R)-9-(2-bromo-4-chloro-6-((5-methoxy-4-(methylamino)pentyl)oxy)benzyl)-9H-purin-6-amine] | > 100 nM | > 100 nM |  | 
6 | Nc1ncnc2c(Cc3c(OCCC[C@@H](N)C(=O)NC4CC4)ccc(Cl)c3Cl)cnn12 [Example 37, (R)-2-amino-5-(2-((4-aminopyrazolo[1,5-a][1,3,5]triazin-8-yl)methyl)-3,4-dichlorophenoxy)-N-cyclopropylpentanamide] | 50 to 100 nM | > 100 nM |  | > 3000 nM
7 | NC(=O)[C@H](N)CCCOc1ccc(Cl)c(Cl)c1Cn1cnc2c(N)ncnc21 [Example 39, (R)-2-amino-5-(2-((6-amino-9H-purin-9-yl)methyl)-3,4-dichlorophenoxy)pentanamide] | 50 to 100 nM |  | < 2000 nM | 
8 | Nc1ncnc2c(Cc3c(OCCC[C@@H](N)CO)ccc(Cl)c3Cl)cnn12 [Example 44, (R)-2-amino-5-(2-((4-aminopyrazolo[1,5-a][1,3,5]triazin-8-yl)methyl)-3,4-dichlorophenoxy)pentan-1-ol] | > 100 nM | > 100 nM |  | > 3000 nM

Continued, in another order:

Row | IC50 [1] | IC50 [2] | IC50 (MV4-11 cells) | SMILES | IC50 (H3K4me3 in MV4-11 cells)
9 | 50 to 100 nM | > 100 nM |  | COC[C@H](N)CCCOc1cc2ccccc2cc1Cn1cnc2c(N)ncnc21 [Example 21, (R)-9-((3-((4-amino-5-methoxypentyl)oxy)naphthalen-2-yl)methyl)-9H-purin-6-amine] | > 3000 nM
10 | 50 to 100 nM |  | > 3000 nM | COc1nc(N)c2ncn(Cc3c(Cl)cc(Cl)cc3OCCC[C@@H](N)C(=O)O)c2n1 [Example 27, (R)-2-amino-5-(2-((6-amino-2-methoxy-9H-purin-9-yl)methyl)-3,5-dichlorophenoxy)pentanoic acid] | 
11 | < 50 nM |  | < 2000 nM | COC(=O)C(N)CCCOc1cc(Cl)cc(Cl)c1Cn1cnc2c(N)ncc(Cl)c21 (stereo not drawn) [Example 31, Methyl 2-amino-5-(2-((4-amino-7-chloro-1H-imidazo[4,5-c]pyridin-1-yl)methyl)-3,5-dichlorophenoxy)pentanoate] | 
12 | 50 to 100 nM |  | < 2000 nM | CCOC(=O)[C@H](N)CCCOc1cc(Cl)cc(Cl)c1Cn1cnc2c(N)ncnc21 [Example 32, ethyl (R)-2-amino-5-(2-((6-amino-9H-purin-9-yl)methyl)-3,5-dichlorophenoxy)pentanoate] | 
13 | < 50 nM | < 60 nM |  | Nc1ncnn2c(Cc3c(OCCC[C@@H](N)C(=O)NC4CC4)ccc(Cl)c3Cl)cnc12 [Example 36, (R)-2-amino-5-(2-((4-aminoimidazo[2,1-f][1,2,4]triazin-7-yl)methyl)-3,4-dichlorophenoxy)-N-cyclopropylpentanamide] | > 3000 nM
